This note sets out measurements from US20250163057A1, “DCN-1 MODULATING COMPOUNDS AND METHODS OF USE THEREOF” (Cellarity, Inc., priority 2023, published 2025).

Assay [1] relates to Cullin-3 (CUL3) neddylation. Description: AlphaLISA assay for Cullin-3 (CUL3) neddylation in TF 1 cells. As to conditions: 3 hours treatment. It is filed as cell-based. Summed up: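 TF 1 cells in unsupplemented IMDM treated with compound concentrations for 3 h, then lysed. CUL3 neddylation detected by AlphaLISA (biotinylated anti-NEDD8, anti-CUL3 acceptor beads overnight, streptavidin donor beads 1 h); normalized to vehicle (0%) and 1 μM DI-1548 (100%), IC50 from Hill fits.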

The target of the next assay is DCN1 protein (Homo sapiens (Human), UniProt Q96GG9). Description: Intact Protein MS Analysis with the RapidFire-TOF System (covalent adduct formation). The class given is binding. Conditions: MS Emax; 400 nM DCN1, 3 hours at room temperature. Summed up: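 Tag-cleaved human DCN1 (400 nM) expressed in E. coli, in 25 mM Tris-HCl, 200 mM NaCl, 1 mM DTT, was incubated with 11 compound concentrations for 3 h at room temperature and quenched with 0.2% formic acid. Intact-protein Q-TOF MS with deconvolution detected the compound adduct mass.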
Chain of DCN1 protein (Q96GG9 whole entry): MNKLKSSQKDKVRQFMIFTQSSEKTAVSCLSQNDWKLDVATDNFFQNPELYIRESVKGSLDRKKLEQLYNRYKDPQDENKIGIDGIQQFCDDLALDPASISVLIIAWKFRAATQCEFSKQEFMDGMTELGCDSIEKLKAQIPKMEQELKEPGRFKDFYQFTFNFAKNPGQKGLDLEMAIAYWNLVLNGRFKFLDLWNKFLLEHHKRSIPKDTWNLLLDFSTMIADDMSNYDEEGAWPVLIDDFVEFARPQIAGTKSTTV

Another assay concerns fetal hemoglobin protein. Description: HbF HPLC Cell Culture Assay. The class given is cell-based. As to conditions: for EC50: 336 h, HbF induction, Day 14 of culture; for Hemoglobin HPLC Ymax obs (%): relative to a control compound. Here is the method:
A Cell Culture Assay was performed to evaluate the ability of compounds to induce fetal hemoglobin in a cell culture. The amount fetal hemoglobin protein induced was measured by HPLC.
Cell culture began on Day −4 (thaw day). Thaw buffer was prepared by sterile filtering 6 mL of Human Serum Albumin and 144 mL of PBS to make sterile 1% I/PBS. Cells were removed from liquid nitrogen storage and mostly thawed in a 37° C. water bath. Once the ice in the cryovials was melted, cells were transferred quickly into a 50 mL conical tube. Cryovial was rinsed once with thaw buffer and buffer was transferred over to the conical tube as well. Next, doubling volumes of thaw buffer was added to the conical and gently swirled for ˜30 seconds to one minute (for example: 2 mL was added and swirled, then 4 mL, then 8 mL, and so on) until the volume in the conical is 32 mL. Cells and buffer were centrifuged at 300G for 8 minutes, and the supernatant was aspirated. Another 32 mL of thaw buffer was added slowly, swirling the tube. The tube was again centrifuged at 300G for 8 minutes and the supernatant was aspirated. Cells were counted by resuspending in 1 mL of expansion media and counting with AOPI to determine the concentration of cells/mL.
On day 2, Passage & Treatment Day, each cell culture well was counted. Next fresh CD34 Expansion Media was made which contained StemSpan SFEM, CC100 and TPO all from StemCell technologies. Appropriate volume of cells was collected, centrifuged at 300 g and resuspended in fresh media. Cells were plated in treatment format at a density of 200,000 cells/ml, 25,000 cells/well. Finally, they were treated with test compounds as well as positive and negative controls.
On Days 0, 3 & 5 the same process was carried out. First, each cell culture well was counted. Next Phase 1 Erythroid Differentiation Media was freshly made, which contained StemSpan SFEM, 2.5 U/ml EPO, 0.5 mg/ml Holo-TF, 1× Glutamax, 5 μl/ml chemically defined lipid mixture, 10 ng/ml insulin, 50 ng/ml SCF, 10 ng/ml IL-3. Appropriate volume of cells was collected, centrifuged at 300 g and resuspended in fresh media. Cells should now be in fresh wells at a density of 100,000 cells/ml. 60,000 cells, 60,000 cells and 100,000 cells for days 0, 3, 5 respectively. Finally, fresh compound was added to each well at each timepoint (Days 0, 3 & 5).
On Day 7 media and cell culture density changes. Each cell culture well was counted. Next, Phase 2 Erythroid Differentiation Media was freshly made, which contains StemSpan SFEM, 2.5 U/ml EPO, 0.5 mg/ml Holo-TF, 1× Glutamax, 5 μl/ml chemically defined lipid mixture, 10 ng/ml insulin, 50 ng/ml SCF. Appropriate volume of cells was collected, centrifuged at 300 g and resuspended in fresh media. Cells were plated in fresh wells at a density of 500,000 cells/ml, 300,000 cells/well. Finally, fresh compound was added to each well at Day 7 timepoint.
On Day 10 media formulation is once again changed. Each cell culture well was counted. Fresh Phase 3 Erythroid Differentiation Media was made which contains StemSpan SFEM, 2.5 U/ml EPO, 0.5 mg/ml Holo-TF, 1× Glutamax, 5 μl/ml chemically defined lipid mixture, 10 ng/ml insulin. Appropriate volume of cells was collected, centrifuged at 300 g and resuspended in fresh media. Cells were plated in fresh wells at a density of 500,000 cells/ml, 500,000 cells/well. Finally, fresh compound was added to each well at Day 10 timepoint.
On Day 12 the cell density is once again changed. Each cell culture well was counted. Fresh Phase 3 Erythroid Differentiation Media was made. Appropriate volume of cells was collected, centrifuged at 300 g and resuspended in fresh media. Cells were plated in fresh wells at a density of 1,000,000 cells/ml, 1,000,000 cells/well. Finally fresh compound was added to each well.
Day 14 (18th day of experiment) refers to the terminal day of culture. Each cell culture well was counted. Next between 150K and 650K cells were placed in a uniquely labeled 1.5 ml standard tube. […]

As for `CCN1C(=O)[C@@H](NC(=O)c2cccc(C(F)(F)F)c2)[C@@H](c2ccc(F)cc2)c2c(CNC(=O)/C=C/C(=O)OC)nn(-c3ccccc3)c21` (racemic) [Compound I-3], in assay [1] (Homo sapiens, TF-1, 3 h), the IC50 is at most 0.1 µM. The “% Adduct Formation” value on DCN1 protein was “+++ (MS Emax % adduct formation greater than 80.0 and less than or equal to 100.0)”. Besides, in the assay with fetal hemoglobin protein, the EC50 is 0.05 to 0.2 µM; the “Hemoglobin HPLC Ymax obs (%)” value is “++ (Hemoglobin HPLC Ymax greater than 65.0 and less than or equal to 100.0)”.
In the case of `CCN1C(=O)[C@@H](NC(=O)c2cccc(C(F)(F)F)c2)[C@@H](C2CC2)c2c(C(=O)N3CC[C@H](OC)[C@H]3C#N)nn(C3CCOCC3)c21` [Compound I-418], the IC50 in assay [1] (Homo sapiens, TF-1, 3 h) is at most 0.1 µM. Moreover, in the assay with fetal hemoglobin protein, the EC50 was at most 0.05 µM and the “Hemoglobin HPLC Ymax obs (%)” value is on record as “+++ (Hemoglobin HPLC Ymax greater than 100.0)”.
Consider `CCc1cccc(C(=O)N[C@@H]2C(=O)N(CC)c3c(c(C(=O)N4[C@H](C#N)C[C@H]5C[C@H]54)nn3C3CCOCC3)[C@@H]2C2CC2)c1` [Compound I-552, N-((4S,5S)-3-((1R,3S,5R)-3-cyano-2-azabicyclo[3.1.0]hexane-2-carbonyl)-4-cyclopropyl-7-ethyl-6-oxo-1-(tetrahydro-2H-pyran-4-yl)-4,5,6,7-tetrahydro-1H-pyrazolo[3,4-b]pyridin-5-yl)-3-ethylbenzamide], for which the IC50 in assay [1] (Homo sapiens, TF-1, 3 h) was at most 0.1 µM.
Consider `CCN1C(=O)[C@@H](NC(=O)c2cccc(C(F)(F)F)c2)[C@@H](c2ccc(F)cc2)c2c(C(=O)N(C)[C@H](C#N)CCN(C)C)nn(C3CCOCC3)c21` [Compound I-370], for which the IC50 in assay [1] (Homo sapiens, TF-1, 3 h) is at most 0.1 µM. In addition, the “% Adduct Formation” value at DCN1 protein is “+++ (MS Emax % adduct formation greater than 80.0 and less than or equal to 100.0)”.
With `CCN1C(=O)[C@@H](NC(=O)c2cccc(C(F)(F)F)c2)[C@@H](c2ccc(F)cc2)c2c(C(=O)N3CCNC[C@H]3C#N)nn(C3CCOCC3)c21` [Compound I-363, N-((4S,5S)-3-((S)-2-cyanopiperazine-1-carbonyl)-7-ethyl-4-(4-fluorophenyl)-6-oxo-1-(tetrahydro-2H-pyran-4-yl)-4,5,6,7-tetrahydro-1H-pyrazolo[3,4-b]pyridin-5-yl)-3-(trifluoromethyl)benzamide], the IC50 in assay [1] (Homo sapiens, TF-1, 3 h) is at most 0.1 µM. Also, the “% Adduct Formation” value on DCN1 protein was “+++ (MS Emax % adduct formation greater than 80.0 and less than or equal to 100.0)”.
For the molecule `C=C(CN1CCC1)C(=O)NCc1nn(-c2ccccc2)c2c1[C@H](c1ccc(F)cc1)[C@H](NC(=O)c1cccc(C(F)(F)F)c1)C(=O)N2CC` (racemic) [Compound I-49, rac-N-((4R,5R)-3-((2-(azetidin-1-ylmethyl)acrylamido)methyl)-7-ethyl-4-(4-fluorophenyl)-6-oxo-1-phenyl-4,5,6,7-tetrahydro-1H-pyrazolo[3,4-b]pyridin-5-yl)-3-(trifluoromethyl)benzamide], the IC50 in assay [1] (Homo sapiens, TF-1, 3 h) is at most 0.1 µM. Further, in the assay on fetal hemoglobin protein, the EC50 was at most 0.05 µM; the “Hemoglobin HPLC Ymax obs (%)” value was “++ (Hemoglobin HPLC Ymax greater than 65.0 and less than or equal to 100.0)”.
On to `CCN1C(=O)[C@@H](NC(=O)c2cccc(C(F)(F)F)c2)[C@@H](c2ccc(F)cc2)c2c(C(=O)N3CCC[C@H]3C#N)nn(-c3ccccc3)c21` (mixture of isomers) [Compound I-34], for which, on DCN1 protein, the “% Adduct Formation” value is “+++ (MS Emax % adduct formation greater than 80.0 and less than or equal to 100.0)”. Also, the “Hemoglobin HPLC Ymax obs (%)” value with fetal hemoglobin protein was “++ (Hemoglobin HPLC Ymax greater than 65.0 and less than or equal to 100.0)”.
`CCN1C(=O)[C@@H](NC(=O)c2cccc(C(F)(F)F)c2)[C@@H](C2CC2)c2c(C(=O)N3CCS(=O)(=O)C[C@H]3C#N)nn(C3CCOCC3)c21` (mixture of isomers) [Compound I-379]: the IC50 in assay [1] (Homo sapiens, TF-1, 3 h) is at most 0.1 µM. In addition, the “% Adduct Formation” value at DCN1 protein is “+++ (MS Emax % adduct formation greater than 80.0 and less than or equal to 100.0)”.
The molecule `CCN1C(=O)[C@@H](NC(=O)c2cccc(C(F)(F)F)c2)[C@@H](C2CCC2)c2c(C(=O)N3CCC[C@H]3C#N)nn(C3CCOCC3)c21` [Compound I-692] displayed an IC50 in assay [1] (Homo sapiens, TF-1, 3 h) of at most 0.1 µM. Moreover, in the assay on fetal hemoglobin protein, the EC50 is above 0.2 µM; the “Hemoglobin HPLC Ymax obs (%)” value was “++ (Hemoglobin HPLC Ymax greater than 65.0 and less than or equal to 100.0)”.
In assay [1] (Homo sapiens, TF-1, 3 h), `CCN1C(=O)[C@@H](NC(=O)c2cccc(C(F)(F)F)c2)[C@@H](C2CC2)c2c(C(=O)N(C)[C@H](C)C#N)nn(C3CCOCC3)c21` [Compound I-422] returned an IC50 of at most 0.1 µM. In the assay on fetal hemoglobin protein, the EC50 lay within 0.05 to 0.2 µM; the “Hemoglobin HPLC Ymax obs (%)” value is “++ (Hemoglobin HPLC Ymax greater than 65.0 and less than or equal to 100.0)”.
In the case of `CCN1C(=O)[C@@H](NC(=O)c2cccc(C(F)(F)F)c2)[C@@H](C2CC2)c2c(C(=O)N3CCNC[C@H]3C#N)nn(-c3ccccc3)c21` [Compound I-383], the IC50 in assay [1] (Homo sapiens, TF-1, 3 h) was at most 0.1 µM. Also, the “% Adduct Formation” value at DCN1 protein was “+++ (MS Emax % adduct formation greater than 80.0 and less than or equal to 100.0)”.
In assay [1] (Homo sapiens, TF-1, 3 h), `CCN1C(=O)[C@@H](NC(=O)c2cccc(C(F)(F)F)c2)[C@@H](c2ccc(F)cc2)c2c(C(=O)N(C)[C@@H](C#N)CCN(C)C)nn(C3CCOCC3)c21` [Compound I-369] displayed an IC50 of at most 0.1 µM. On DCN1 protein, the “% Adduct Formation” value is “+++ (MS Emax % adduct formation greater than 80.0 and less than or equal to 100.0)”.
For the molecule `C=C(CN1CCC1)C(=O)NCc1nn(-c2ccccc2)c2c1[C@@H](c1ccc(F)cc1)[C@H](NC(=O)c1cccc(C(F)(F)F)c1)C(=O)N2CC` [Compound I-139], the IC50 in assay [1] (Homo sapiens, TF-1, 3 h) was at most 0.1 µM. Further, in the assay on fetal hemoglobin protein, the EC50 was at most 0.05 µM; the “Hemoglobin HPLC Ymax obs (%)” value was “++ (Hemoglobin HPLC Ymax greater than 65.0 and less than or equal to 100.0)”.
In assay [1] (Homo sapiens, TF-1, 3 h), `CCN1C(=O)[C@@H](NC(=O)c2cccc(C(F)(F)F)c2)[C@@H](C2CC2)c2c(C(=O)N3CCNC[C@H]3C#N)nn(C3CCOCC3)c21` [Compound I-582] came in with an IC50 of at most 0.1 µM.
For `CCN1C(=O)[C@@H](NC(=O)c2cccc(C(F)(F)F)c2)[C@@H](c2ccc(F)cc2)c2c(C(=O)N3CS(=O)(=O)C[C@H]3C#N)nn(C3CCOCC3)c21` (mixture of isomers) [Compound I-661, N-((4S,5S)-3-(4-cyano-1,1-dioxidothiazolidine-3-carbonyl)-7-ethyl-4-(4-fluorophenyl)-6-oxo-1-(tetrahydro-2H-pyran-4-yl)-4,5,6,7-tetrahydro-1H-pyrazolo[3,4-b]pyridin-5-yl)-3-(trifluoromethyl)benzamide], the IC50 in assay [1] (Homo sapiens, TF-1, 3 h) is at most 0.1 µM. Also, in the assay on fetal hemoglobin protein, the EC50 is above 0.2 µM; the “Hemoglobin HPLC Ymax obs (%)” value was “++ (Hemoglobin HPLC Ymax greater than 65.0 and less than or equal to 100.0)”.
For the molecule `CCN1C(=O)[C@@H](NC(=O)c2cccc(C(F)(F)F)c2)[C@@H](C2CC2)c2c(C(=O)N3CS(=O)(=O)C[C@H]3C#N)nn(C3CCOCC3)c21` [Compound I-617], in assay [1] (Homo sapiens, TF-1, 3 h), the IC50 is at most 0.1 µM.
Consider `CCN1C(=O)[C@@H](NC(=O)c2cccc(C(F)(F)F)c2)[C@@H](C)c2c(C(=O)N3[C@H](C#N)C[C@H]4C[C@H]43)nn(C3CCOCC3)c21` [Compound I-387], for which the IC50 in assay [1] is at most 0.1 µM. For the same molecule, the “% Adduct Formation” value at DCN1 protein is “+++ (MS Emax % adduct formation greater than 80.0 and less than or equal to 100.0)”.
